From ChEMBL document CHEMBL1201862, “PubChem BioAssay data set” (2004)
Several values for one entry are separate records, joined by “and”; a condition that tells them apart may be missing. Equal values may be shown once.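 Assay format: 96-well plates, 48-hour exposure. GI50: concentration for 50% inhibition of growth.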 Activity calls are given as the source filed them. Cut-off read from the data, not from the text of the source: active = GI50 up to about 1.1 µM and inactive = higher.

Tests used:
Assay in all cases: growth of human tumour cells (NCI), 48 h
TK-10 = system: TK-10
COLO 205 = system: COLO 205
MDA-MB-435 = system: MDA-MB-435
M14 = system: M14
UO-31 = system: UO-31
SK-OV-3 = system: SK-OV-3
EKVX = system: EKVX
HOP-92 = system: HOP-92
OVCAR-5 = system: OVCAR-5
RPMI-8226 = system: RPMI-8226
KM12 = system: KM12
BT-549 = system: BT-549
HT-29 = system: HT-29
MDA-MB-231 = system: MDA-MB-231
NCI-H522 = system: NCI-H522
IGROV-1 = system: IGROV-1
786-0 = system: 786-0
SNB-19 = system: SNB-19
Malme-3M = system: Malme-3M

Measured: GI50

C#C[C@]1(O)CC[C@H]2[C@@H]3CCC4=C/C(=N/OC(=O)c5cccc6c(=O)c7ccccc7[nH]c56)CC[C@@H]4[C@H]3CC[C@@]21C
inactive: TK-10 > 100 µM | COLO 205 24.4 µM | MDA-MB-435 43.1 µM | M14 56.5 µM | UO-31 53.5 µM | SK-OV-3 > 100 µM | EKVX 71 µM | HOP-92 > 100 µM | OVCAR-5 > 100 µM | RPMI-8226 13.6 µM | KM12 34.8 µM | BT-549 37.2 µM | HT-29 52.5 µM | MDA-MB-231 51.8 µM | NCI-H522 18.2 µM | IGROV-1 68.4 µM | 786-0 > 100 µM | SNB-19 > 100 µM | Malme-3M 45 µM

CS[C@]12C(=O)C[C@@]3(C)[C@@H](CC[C@]3(O)C(=O)CO)[C@@H]1CCC1=CC(=O)CC[C@@]12C
inactive: TK-10 > 100 µM | COLO 205 > 100 µM | MDA-MB-435 30.1 µM | M14 46 µM | UO-31 95.5 µM | SK-OV-3 > 100 µM | EKVX > 100 µM | HOP-92 > 100 µM | OVCAR-5 > 100 µM | RPMI-8226 30.1 µM | KM12 > 100 µM | BT-549 68.2 µM | HT-29 88.5 µM | MDA-MB-231 > 100 µM | NCI-H522 47.9 µM | IGROV-1 > 100 µM | 786-0 > 100 µM | SNB-19 > 100 µM | Malme-3M > 100 µM

C\C(=N/N=C1/C(=C\N(C)C)C(=O)NC(=O)N1C)c1ccc(Cl)cc1
inactive: TK-10 57.3 µM | COLO 205 > 100 µM | MDA-MB-435 37.6 µM | M14 43.2 µM | UO-31 > 100 µM | SK-OV-3 > 100 µM | EKVX > 100 µM | HOP-92 > 100 µM | OVCAR-5 69.2 µM | RPMI-8226 26.9 µM | KM12 44.6 µM | BT-549 > 100 µM | HT-29 > 100 µM | MDA-MB-231 > 100 µM | NCI-H522 62.2 µM | IGROV-1 53 µM | 786-0 > 100 µM | SNB-19 > 100 µM | Malme-3M > 100 µM

Nc1c2c(nc3ccccc13)CCCc1ccccc1-2
inactive: TK-10 6.08 µM | COLO 205 8.32 µM | MDA-MB-435 11.3 µM | M14 7.91 µM | UO-31 10.5 µM | SK-OV-3 33.5 µM | EKVX 13.2 µM | HOP-92 10.1 µM | OVCAR-5 12.4 µM | RPMI-8226 5.32 µM | KM12 13.1 µM | BT-549 28.8 µM | HT-29 4.53 µM | MDA-MB-231 5.38 µM | NCI-H522 17.3 µM | IGROV-1 9.46 µM | 786-0 11.3 µM | SNB-19 11.3 µM | Malme-3M 18.5 µM

COC(=O)C1Cc2ccc(O)c(O)c2CN1 (stereo not drawn)
inactive: TK-10 > 100 µM | COLO 205 > 100 µM | MDA-MB-435 16.7 µM | M14 16.2 µM | UO-31 22.5 µM | SK-OV-3 > 100 µM | EKVX > 100 µM | HOP-92 26.4 µM | OVCAR-5 27.5 µM | RPMI-8226 24.2 µM | KM12 69.3 µM | BT-549 18.3 µM | HT-29 23.3 µM | MDA-MB-231 19.8 µM | NCI-H522 > 100 µM | IGROV-1 35.8 µM | 786-0 17.5 µM | SNB-19 38.3 µM | Malme-3M 32.1 µM

COc1cc2nc(-c3cccs3)nc(N3CCN(c4ccccc4)CC3)c2cc1OC
inactive: TK-10 > 100 µM | COLO 205 > 100 µM | MDA-MB-435 > 100 µM | M14 > 100 µM | UO-31 > 100 µM | SK-OV-3 > 100 µM | EKVX > 100 µM | HOP-92 > 100 µM | OVCAR-5 > 100 µM | RPMI-8226 > 100 µM | KM12 > 100 µM | BT-549 > 100 µM | HT-29 > 100 µM | MDA-MB-231 > 100 µM | NCI-H522 > 100 µM | IGROV-1 > 100 µM | 786-0 > 100 µM | SNB-19 68.1 µM | Malme-3M > 100 µM

CC(=O)OC1COC(n2c(N)c(C#N)c(-c3ccccc3)c(C#N)c2=S)C(OC(C)=O)C1OC(C)=O (stereo not drawn)
inactive: TK-10 30.2 µM | COLO 205 31.6 µM and 31.3 µM | MDA-MB-435 27.8 µM and 24.3 µM | M14 70.8 µM and 64.1 µM | UO-31 23.1 µM and 36.5 µM | SK-OV-3 38.3 µM and 45 µM | EKVX 31.9 µM and 29.9 µM | HOP-92 19.8 µM and 14.8 µM | OVCAR-5 46.5 µM and 89.1 µM | RPMI-8226 24.5 µM and 28.6 µM | KM12 67 µM and 40.7 µM | BT-549 25.6 µM and 22.8 µM | HT-29 35.9 µM and 43.1 µM | MDA-MB-231 50.9 µM and 56.6 µM | NCI-H522 38.5 µM and 40.8 µM | IGROV-1 > 100 µM and 68.5 µM | 786-0 36.9 µM and 39.3 µM | SNB-19 75.9 µM | Malme-3M 34.3 µM and 33.4 µM
